# Laboratory results reported in PubChem BioAssay AID248 (DTP/NCI, 2004).
# Inconclusive results and toxic doses are left out.
# Tested on: L1210 leukemia ip in BDF1 mice, survival T/C
# Assay: NCI In Vivo Anticancer Drug Screen. Data for tumor model L1210 Leukemia (intraperitoneal) in B6D2F1 (BDF1) mice
# Settings: endpoint: mean survival time, higher = longer survival
# Procedure, shortened: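 Tumor was transplanted into mice, which were then dosed with test compound or vehicle alone. Survival was recorded for each group, and the treated figure was expressed relative to the control figure.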
# [1] = dose: 100.0 mg/kg/injection, schedule: Q04DX003 (ip), vehicle: saline with Tween-80
# [2] = dose: 200.0 mg/kg/injection, schedule: Q04DX003 (ip), vehicle: saline with Tween-80
# [3] = dose: 400.0 mg/kg/injection, schedule: Q04DX003 (ip), vehicle: saline with Tween-80
compound,measurement,setting,value
CN(CCS(=O)(=O)O)/N=C/c1ccc2c(c1)OCO2,T/C,"dose: 25.0 mg/kg/injection, schedule: Q01DX009 (ip), vehicle: alcohol",112 % of control
same,T/C,"dose: 50.0 mg/kg/injection, schedule: Q01DX009 (ip), vehicle: alcohol",102 % of control
same,T/C,"dose: 100.0 mg/kg/injection, schedule: Q01DX001 (ip), vehicle: saline with Tween-80",92 % of control
same,T/C,"dose: 100.0 mg/kg/injection, schedule: Q01DX009 (ip), vehicle: alcohol",101 % of control
same,T/C,"dose: 150.0 mg/kg/injection, schedule: Q01DX009 (ip), vehicle: Klucel (hydroxypropylcellulose) (HPC)",94 % of control
same,T/C,"dose: 225.0 mg/kg/injection, schedule: Q01DX009 (ip), vehicle: Klucel (hydroxypropylcellulose) (HPC)",97 % of control
O=C1OCC/C1=C/CCCCC/C=C1\CCOC1=O,T/C,"dose: 100.0 mg/kg/injection, schedule: Q01DX001 (sc), vehicle: olive oil, sesame oil, peanut oil",103 % of control
same,T/C,"dose: 100.0 mg/kg/injection, schedule: Q04DX003 (sc), vehicle: olive oil, sesame oil, peanut oil",104 % of control
same,T/C,"dose: 200.0 mg/kg/injection, schedule: Q01DX001 (sc), vehicle: olive oil, sesame oil, peanut oil",100 % of control
same,T/C,"dose: 200.0 mg/kg/injection, schedule: Q04DX003 (sc), vehicle: olive oil, sesame oil, peanut oil",100 % of control
same,T/C,"dose: 400.0 mg/kg/injection, schedule: Q01DX001 (sc), vehicle: olive oil, sesame oil, peanut oil",96 % of control
same,T/C,"dose: 400.0 mg/kg/injection, schedule: Q04DX003 (sc), vehicle: olive oil, sesame oil, peanut oil",102 % of control
COc1ccc(C(=O)NS(=O)(=O)c2ccc(Cl)cc2)cc1,T/C,[1],107 % of control
same,T/C,[2],91 % of control
same,T/C,[3],114 % of control
CCCCNc1cc(Nc2ccc(Br)cc2)nc(N)n1,T/C,"dose: 100.0 mg/kg/injection, schedule: Q01DX001 (ip), vehicle: saline",102 % of control
same,T/C,"dose: 200.0 mg/kg/injection, schedule: Q01DX001 (ip), vehicle: saline",98 % of control
CCCCNC(=O)C(C)S(=O)(=O)c1ccc(C)cc1 (stereo unspecified),T/C,[1],100 % of control
same,T/C,[2],100 % of control
same,T/C,[3],98 % of control
O=C(Nc1csnn1)c1ccco1,T/C,"dose: 50.0 mg/kg/injection, schedule: Q01DX001 (ip), vehicle: other",104 % of control
same,T/C,"dose: 100.0 mg/kg/injection, schedule: Q01DX001 (ip), vehicle: other",115 % of control
same,T/C,"dose: 200.0 mg/kg/injection, schedule: Q01DX001 (ip), vehicle: other",104 % of control
same,T/C,"dose: 400.0 mg/kg/injection, schedule: Q01DX001 (ip), vehicle: other",110 % of control
CN(C)c1ccc(/C=N\NC(=O)CCCCC(=O)N/N=C\c2ccc(N(C)C)cc2)cc1,T/C,"dose: 100.0 mg/kg/injection, schedule: Q04DX003 (ip), vehicle: Klucel (hydroxypropylcellulose) (HPC)",94 % of control
same,T/C,"dose: 200.0 mg/kg/injection, schedule: Q04DX003 (ip), vehicle: Klucel (hydroxypropylcellulose) (HPC)",91 % of control
same,T/C,"dose: 400.0 mg/kg/injection, schedule: Q04DX003 (ip), vehicle: Klucel (hydroxypropylcellulose) (HPC)",91 % of control
CC1=C(C(=O)O)CC(S(=O)(=O)O)C1(C)C (stereo unspecified),T/C,"dose: 75.0 mg/kg/injection, schedule: Q01DX001 (ip), vehicle: acetone",96 % of control
same,T/C,"dose: 150.0 mg/kg/injection, schedule: Q01DX001 (ip), vehicle: acetone",96 % of control
same,T/C,"dose: 300.0 mg/kg/injection, schedule: Q01DX001 (ip), vehicle: acetone",92 % of control
COc1ccc(-n2cccc2C(N)=O)cc1OC,T/C,"dose: 100.0 mg/kg/injection, schedule: Q04DX002 (ip), vehicle: Klucel (hydroxypropylcellulose) (HPC)",103 % of control
same,T/C,"dose: 200.0 mg/kg/injection, schedule: Q04DX002 (ip), vehicle: Klucel (hydroxypropylcellulose) (HPC)",100 % of control
same,T/C,"dose: 400.0 mg/kg/injection, schedule: Q04DX002 (ip), vehicle: Klucel (hydroxypropylcellulose) (HPC)",90 % of control
CC1(C(=O)O)CC1(C)C(=O)O (stereo unspecified),T/C,[1],103 % of control
same,T/C,[2],96 % of control
same,T/C,[3],92 % of control
CCCCSc1ccccn1,T/C,"dose: 50.0 mg/kg/injection, schedule: Q04DX003 (ip), vehicle: saline",114 % of control
same,T/C,"dose: 100.0 mg/kg/injection, schedule: Q04DX003 (ip), vehicle: saline",98 % of control
same,T/C,"dose: 200.0 mg/kg/injection, schedule: Q04DX003 (ip), vehicle: saline",90 % of control
O=C(O)COc1c(Cl)c(Cl)c(Cl)c(Cl)c1Cl,T/C,"dose: 100.0 mg/kg/injection, schedule: Q01DX009 (ip), vehicle: saline with Tween-80",93 % of control
Cc1ccc(S(=O)(=O)N2CC(O)C(O)C2Cn2cnc3c(N)ncnc32)cc1 (stereo unspecified),T/C,"dose: 50.0 mg/kg/injection, schedule: Q04DX002 (ip), vehicle: saline",96 % of control
same,T/C,"dose: 100.0 mg/kg/injection, schedule: Q04DX002 (ip), vehicle: saline",102 % of control
same,T/C,"dose: 200.0 mg/kg/injection, schedule: Q04DX002 (ip), vehicle: saline",102 % of control
CN(N=O)C(=O)NC(=O)N(C)N=O,T/C,"dose: 18.0 mg/kg/injection, schedule: Q01DX Z (ip), vehicle: carboxymethylcellulose (CMC)",155 % of control
same,T/C,"dose: 27.5 mg/kg/injection, schedule: Q01DX001 (ip), vehicle: carboxymethylcellulose (CMC)",110 % of control
same,T/C,"dose: 54.0 mg/kg/injection, schedule: Q01DX001 (ip), vehicle: carboxymethylcellulose (CMC)",118 % of control
same,T/C,"dose: 75.0 mg/kg/injection, schedule: Q01DX Z (ip), vehicle: carboxymethylcellulose (CMC)",87 % of control
same,T/C,"dose: 108.0 mg/kg/injection, schedule: Q01DX001 (ip), vehicle: carboxymethylcellulose (CMC)",86 % of control
CC(C)(C)C(=O)CC(=O)C(C)(C)C.CC(C)(C)C(=O)CC(=O)C(C)(C)C.CC(C)(C)C(=O)CC(=O)C(C)(C)C.[Tb],T/C,[1],93 % of control
same,T/C,[2],93 % of control
same,T/C,[3],94 % of control
